Data from patent US8501778B2, “Aralkyl piperidine derivatives and their uses as antalgic or ataractic agent” (priority 2008, dated 2013).
Structures can show the parent of a compound that is named as a salt.

These compounds were tested on Kunming mice (assay: Acetic Acid Twisting Method in mice (antalgic effect)). Settings: Mus musculus, po; 20 mg/kg, gavage administration, mice; read-out: twisting response inhibiting rate (%).
Format: in vivo

Structure (SMILES)	inhibition in vivo at 20 mg/kg [%]
CC(=O)Oc1ccccc1C(=O)O [Aspirin, reference compound]	90

Same assay, conditions: Mus musculus, sc, read-out: antalgic

Structure (SMILES)	inhibition in vivo at 20 mg/kg [%]
C[C@@H](c1ccccc1)N1CCC(O)(CC(=O)c2ccccc2)CC1 [III-18, (S)—N-(1-phenylethyl)-4-benzoylmethyl-4-piperidinol hydrochloride]	84
COc1ccc(CN2CCC(O)(CC(O)c3ccccc3)CC2)cc1 (stereo not shown) [Compound V-1, N-p-methoxybenzyl-4-(2-hydroxy-2-phenylethyl)-4-piperidinol hydrochloride]	76
O=C(CC1(O)CCN(Cc2ccccc2)CC1)c1ccc(Cl)cc1 [III-33, N-benzyl-4-(p-chlorobenzoylmethyl)-4-piperidinol hydrobromide]	26
OC(CC1(O)CCN(Cc2ccc3c(c2)CCN3)CC1)c1ccccc1 (stereo not shown) [Compound V-6, N-(5-indolinyl)methyl-4-(2-hydroxy-2-phenylethyl)-4-piperidinol hydrochloride]	69
O=C(CC1(O)CCN(Cc2ccccc2)CC1)c1ccc(N2CCCC2)cc1 [III-35, N-benzyl-4-(4-(pyrrolidinyl)benzoylmethyl)-4-piperidinol hydrochloride]	64
O=C(CC1(O)CCN(Cc2ccc3c(c2)CCN3)CC1)c1ccccc1 [III-30, N-(5-indolinyl)methyl-4-benzoylmethyl-4-piperidinol hydrochloride]	42
CC(c1ccc(N)cc1)N1CCC(O)(CC(=O)c2ccccc2)CC1 (stereo not shown) [III-21, N-(1-(4-aminophenyl)ethyl)-4-benzoylmethyl-4-piperidinol hydrochloride]	57
CC(c1ccc(N2CCCC2)cc1)N1CCC(O)(CC(=O)c2ccccc2)CC1 (stereo not shown) [III-25, N-(1-(4-(1-pyrrolidinyl)phenyl)ethyl)-4-benzoylmethyl-4-piperidinol hydrochloride]	80
O=C(CC1(O)CCN(Cc2ccccc2)CC1)c1ccccn1 [III-34, N-benzyl-4-(2-pyridinylformylmethyl)-4-piperidinol hydrobromide]	75
O=C(CC1(O)CCN(Cc2ccc(N3CCOCC3)cc2)CC1)c1ccccc1 [III-26, N-(4-morpholinobenzyl)-4-benzoylmethyl-4-piperidinol hydrochloride]	64
O=C(CC1(O)CCN(Cc2ncccn2)CC1)c1ccccc1 [III-10, N-(2-pyrimidinyl)methyl-4-benzoylmethyl-4-piperidinol hydrochloride]	51
COc1ccccc1N1CCC(O)(CC(O)c2ccccc2)CC1 (stereo not shown) [Compound V-5, N-(2-methoxyphenyl)-4-(2-hydroxy-2-phenylethyl)-4-piperidinol hydrochloride]	72
CC(c1ccc(N2CCOCC2)cc1)N1CCC(O)(CC(O)c2ccccc2)CC1 (stereo not shown) [Compound V-8, N-(1-(4-morpholinophenyl)ethyl)-4-(2-hydroxy-2-phenylethyl)-4-piperidinol hydrochloride]	77
O=C(CC1(O)CCN(Cc2ccc(N3CCCCC3)cc2)CC1)c1ccccc1 [III-28, N-(4-(1-piperidinyl)benzyl)-4-benzoylmethyl-4-piperidinol hydrochloride]	64
CC(C(=O)c1ccccc1)C1(O)CCN(Cc2ccccc2)CC1 (stereo not shown) [III-39, N-benzyl-4-(1-benzoylethyl)-4-piperidinol hydrochloride]	56
O=C(CC1(O)CCN(Cc2ccc3c(c2)OCO3)CC1)c1ccccc1 [III-13, N-(benzo[d][1,3]dioxol-5-ylmethyl)-4-benzoylmethyl-4-piperidinol hydrochloride]	37
COc1ccc(C(=O)CC2(O)CCN(Cc3ccccc3)CC2)cc1 [III-32, N-benzyl-4-(p-methoxybenzoylmethyl)-4-piperidinol hydrobromide]	49
CC(c1ccc(F)cc1)N1CCC(O)(CC(=O)c2ccccc2)CC1 (stereo not shown) [III-20, N-(1-(4-fluorophenyl)ethyl)-4-benzoylmethyl-4-piperidinol hydrochloride]	37
COc1cc(CN2CCC(O)(CC(=O)c3ccccc3)CC2)cc(OC)c1OC [III-14, N-(3,4,5-trimethoxybenzyl)-4-benzoylmethyl-4-piperidinol hydrochloride]	54
O=C(CC1(O)CCN(Cc2ccc(Cl)cc2)CC1)c1ccccc1 [III-2, N-p-chlorobenzyl-4-benzoylmethyl-4-piperidinol hydrochloride]	14
O=C1Cc2cc(CN3CCC(O)(CC(=O)c4ccccc4)CC3)ccc2N1 [III-29, N-(2-oxo-5-indolinyl)methyl-4-benzoylmethyl-4-piperidinol hydrochloride]	45

Structure (SMILES)	inhibition in vivo at 20 mg/kg [%]
O=C(CC1(Cl)CCN(Cc2ccc3c(c2)OCO3)CC1)c1ccccc1 [IX-6, N-(benzo[d][1,3]dioxol-5-ylmethyl)-4-benzoylmethyl-4-chloropiperidine hydrochloride]	59
O=C(CC1(O)CCN(Cc2ccccc2)CC1)c1ccc(N2CCOCC2)cc1 [III-36, N-benzyl-4-((4-morpholinobenzoyl)methyl)-4-piperidinol hydrochloride]	41
OC(CC1(O)CCN(Cc2ccc3c(c2)OCO3)CC1)c1ccccc1 (stereo not shown) [Compound V-4, N-(benzo[d][1,3]dioxol-5-ylmethyl)-4-(2-hydroxy-2-phenylethyl)-4-piperidinol hydrochloride]	76
COc1ccc(C(C)N2CCC(O)(CC(=O)c3ccccc3)CC2)cc1 (stereo not shown) [III-19, N-(1-(4-methoxyphenyl)ethyl)-4-benzoylmethyl-4-piperidinol hydrochloride]	91
COc1ccc(C(C)N2CCC(Cl)(CC(=O)c3ccccc3)CC2)cc1 (stereo not shown) [IX-5, N-(1-(p-methoxyphenyl)ethyl)-4-benzoylmethyl-4-chloropiperidine hydrochloride]	68
COc1ccccc1N1CCC(O)(CC(=O)c2ccccc2)CC1 [III-12, N-(2′-methoxyphenyl)-4-benzoylmethyl-4-piperidinol hydrochloride]	21
CC(c1ccc(N2CCOCC2)cc1)N1CCC(F)(CC(=O)c2ccccc2)CC1 (stereo not shown) [IX-3, N-(1-(4-morpholinophenyl)ethyl)-4-benzoylmethyl-4-fluoropiperidine hydrochloride]	64
O=C(CC1(O)CCN(c2ccc3ccccc3n2)CC1)c1ccccc1 [III-11, N-(2-quinolyl)-4-benzoylmethyl-4-piperidinol hydrochloride]	44
CC(c1ccc2c(c1)OCO2)N1CCC(O)(CC(=O)c2ccccc2)CC1 (stereo not shown) [III-22, N-(1-(benzo[d][1,3]dioxol-5-yl)ethyl)-4-benzoylmethyl-4-piperidinol hydrochloride]	43
O=C(CC1(O)CCN(Cc2ccccc2)CC1)c1ccc2c(c1)CCN2 [III-37, N-benzyl-4-(2-(5-indolinyl)-2-oxoethyl)-4-piperidinol hydrochloride]	52
COC1(CC(=O)c2ccccc2)CCN(C(C)c2ccc(N3CCOCC3)cc2)CC1 (stereo not shown) [VIII-3, N-(1-(4-morpholinophenyl)ethyl)-4-benzoylmethyl-4-methoxylpiperidine hydrochloride]	60
CC(c1ccc(N2CCCC2)cc1)N1CCC(F)(CC(=O)c2ccccc2)CC1 (stereo not shown) [IX-4, N-(1-(4-(pyrrolidinyl)phenyl)ethyl)-4-benzoylmethyl-4-fluoropiperidine hydrochloride]	64
CC(c1ccccc1)N1CCC(O)(CC(=O)c2ccccc2)CC1 (stereo not shown) [III-16, N-(1-phenylethyl)-4-benzoylmethyl-4-piperidinol hydrochloride]	33
CC(c1ccc(N2CCOCC2)cc1)N1CCC(O)(CC(=O)c2ccccc2)CC1 (stereo not shown) [III-27, N-(1-(4-morpholinophenyl)ethyl)-4-benzoylmethyl-4-piperidinol hydrochloride]	92
O=C(CC1(O)CCN(Cc2ccccc2)CC1)c1ccc2c(c1)OCO2 [III-38, N-benzyl-4-(2-(benzo[d][1,3]dioxol-5-yl)-2-oxoethyl)-4-piperidinol hydrochloride]	46
O=C(CC1(O)CCN(c2ncccn2)CC1)c1ccccc1 [III-9, N-(2-pyrimidinyl)-4-benzoylmethyl-4-piperidinol hydrochloride]	57
C[C@H](c1ccccc1)N1CCC(O)(CC(=O)c2ccccc2)CC1 [III-17, (R)—N-(1-phenylethyl)-4-benzoylmethyl-4-piperidinol hydrochloride]	66
O=C(CC1(O)CCN(Cc2ccccn2)CC1)c1ccccc1 [III-8, N-(2-pyridyl)methyl-4-benzoylmethyl-4-piperidinol hydrochloride]	77
COc1ccc(C(C)N2CCC(CC(=O)c3ccccc3)(OC)CC2)cc1 (stereo not shown) [VIII-2, N-(1-(p-methoxyphenyl)ethyl)-4-benzoylmethyl-4-methoxylpiperidine hydrochloride]	76
O=C(CC1(O)CCN(Cc2ccc(N3CCCC3)cc2)CC1)c1ccccc1 [III-24, N-(4-(1-pyrrolidinyl)benzyl)-4-benzoylmethyl-4-piperidinol hydrochloride]	62
O=C(CC1(F)CCN(Cc2ccc3c(c2)OCO3)CC1)c1ccccc1 [IX-2, N-(benzo[d][1,3]dioxol-5-ylmethyl)-4-benzoylmethyl-4-fluoropiperidine hydrochloride]	45
